What was measured:
[1] = tested on: Glomerella lagenarium (Colletotrichum lagenarium); assay: Glomerella lagenarium (Colletotrichum lagenarium) / liquid culture (anthracnose); format: cell-based; details: Colletotrichum orbiculare, liquid culture (PDB), growth inhibition photometrically 3-4 days after application, compared to untreated control
Procedure: Example B3. Glomerella lagenarium (Colletotrichum lagenarium)/Liquid Culture (Anthracnose) Conidia of the fungus from cryogenic storage are directly mixed into nutrient broth (PDB potato dextrose broth). After placing a (DMSO) solution of test compound into a microtiter plate (96-well format), the nutrient broth containing the fungal spores is added. The test plates are incubated at 24° C. and the inhibition of growth is measured photometrically 3-4 days after application. […] […]-25, and P-26.

[2] = tested on: Pyrenophora teres; assay: Pyrenophora teres / barley / leaf disc preventative (net blotch); format: in vivo; details: foliar, barley leaf segments cv. Hasso, inoculated 2 days after application, compared to untreated control
Procedure: Example B10. Pyrenophora teres/Barley/Leaf Disc Preventative (Net Blotch) Barley leaf segments cv. Hasso are placed on agar in a multiwell plate (24-well format) and sprayed with the formulated test compound diluted in water. The leaf segments are inoculated with a spore suspension of the fungus 2 days after application. The inoculated leaf segments are incubated at 20° C. and 65% rh under a light regime of 12 h light/12 h darkness in a climate cabinet and the activity of a compound is assessed as disease control compared to untreated when an appropriate level of disease damage appears in untreated check leaf segments (5-7 days after application). […] […]-25, and P-26.

[3] = tested on: Mycosphaerella graminicola (Septoria tritici); assay: Mycosphaerella graminicola (Septoria tritici) / liquid culture (Septoria blotch); format: cell-based; details: Zymoseptoria tritici, liquid culture (PDB), growth inhibition photometrically 4-5 days after application, compared to untreated control
Procedure: Example B11. Mycosphaerella graminicola (Septoria tritici)/Liquid Culture (Septoria Blotch) Conidia of the fungus from cryogenic storage are directly mixed into nutrient broth (PDB potato dextrose broth). After placing a (DMSO) solution of test compound into a microtiter plate (96-well format), the nutrient broth containing the fungal spores is added. The test plates are incubated at 24° C. and the inhibition of growth is determined photometrically 4-5 days after application.

[4] = tested on: Alternaria solani; assay: Alternaria solani / tomato / leaf disc (early blight); format: in vivo; details: foliar, tomato leaf disks cv. Baby, inoculated 2 days after application, compared to untreated control
Procedure: Example B1. Alternaria solani/Tomato/Leaf Disc (Early Blight) Tomato leaf disks cv. Baby are placed on agar in multiwell plates (24-well format) and sprayed with the formulated test compound diluted in water. The leaf disks are inoculated with a spore suspension of the fungus 2 days after application. The inoculated leaf disks are incubated at 23° C./21° C. […] […]-24, and P-25.

[5] = tested on: Monographella nivalis (Microdochium nivale); assay: Monographella nivalis (Microdochium nivale) / liquid culture (foot rot cereals); format: cell-based; details: liquid culture (PDB), growth inhibition photometrically 4-5 days after application, compared to untreated control
Procedure: Example B6. Monographella nivalis (Microdochium nivale)/Liquid Culture (Foot Rot Cereals) Conidia of the fungus from cryogenic storage are directly mixed into nutrient broth (PDB potato dextrose broth). After placing a (DMSO) solution of test compound into a microtiter plate (96-well format), the nutrient broth containing the fungal spores is added. The test plates are incubated at 24° C. and the inhibition of growth is determined photometrically 4-5 days after application. […] […]-25, and P-26.

[6] = tested on: Magnaporthe grisea (Pyricularia oryzae); assay: whole plant or invertebrate; format: in vivo; details: foliar, read-out: control of Magnaporthe grisea
[7] = tested on: Mycosphaerella arachidis (Cercospora arachidicola); assay: Mycosphaerella arachidis (Cercospora arachidicola) / liquid culture (early leaf spot); format: cell-based; details: liquid culture (PDB), growth inhibition photometrically 4-5 days after application, compared to untreated control
Procedure: Example B7. Mycosphaerella arachidis (Cercospora arachidicola)/Liquid Culture (Early Leaf Spot) Conidia of the fungus from cryogenic storage are directly mixed into nutrient broth (PDB potato dextrose broth). After placing a (DMSO) solution of test compound into a microtiter plate (96-well format), the nutrient broth containing the fungal spores is added. The test plates are incubated at 24° C. and the inhibition of growth is determined photometrically 4-5 days after application. […] […]-22, and P-25.

[8] = tested on: Puccinia recondita f. sp. tritici; assay: Puccinia recondita f. sp. tritici / wheat / leaf disc preventative (brown rust); format: in vivo; details: foliar, wheat leaf segments cv. Kanzler, inoculated 1 day after application, compared to untreated control
Procedure: Example B8. Puccinia recondita f. Sp. tritici/Wheat/Leaf Disc Preventative (Brown Rust) Wheat leaf segments cv. Kanzler are placed on agar in multiwell plates (24-well format) and sprayed with the formulated test compound diluted in water. The leaf disks are inoculated with a spore suspension of the fungus 1 day after application. The inoculated leaf segments are incubated at 19° C. and 75% rh under a light regime of 12 h light/12 h darkness in a climate cabinet and the activity of a compound is assessed as percent disease control compared to untreated when an appropriate level of disease damage appears in untreated check leaf segments (7-9 days after application). […] […]-25, and P-26.

CC1(NC(=O)c2nc(Nc3cc(F)cc(F)c3)cc3c2OCO3)CCOC1 (centres unmarked) [Compound P-23, 6-(3,5-difluoroanilino)-N-(3-methyltetrahydrofuran-3-yl)-[1,3]dioxolo[4,5-c]pyridine-4-carboxamide]
≥ 80%: inhibition of growth at 20 ppm [1] | pest or weed control at 200 ppm [2] | inhibition of growth at 20 ppm [3] | pest or weed control at 200 ppm [4] | inhibition of growth at 20 ppm [5]

CC1Oc2cc(Nc3cccc(F)c3)nc(C(=O)NCC(C)(C)C)c2O1 (centres unmarked) [Compound P-2, N-(2,2-dimethylpropyl)-6-(3-fluoroanilino)-2-methyl-[1,3]dioxolo[4,5-c]pyridine-4-carboxamide]
≥ 80%: inhibition of growth at 20 ppm [1] | inhibition of growth at 20 ppm [3]

CC1Oc2cc(Nc3ccccc3)nc(C(=O)NCC(C)(C)C)c2O1 (centres unmarked) [Compound P-1, 6-anilino-N-(2,2-dimethylpropyl)-2-methyl-[1,3]dioxolo[4,5-c]pyridine-4-carboxamide]
≥ 80%: inhibition of growth at 20 ppm [1]

CC1(NC(=O)c2nc(Nc3cc(F)cc(F)c3)cc3c2OCO3)CSC1 [Compound P-19, 6-(3,5-difluoroanilino)-N-(3-methylthietan-3-yl)-[1,3]dioxolo[4,5-c]pyridine-4-carboxamide]
≥ 80%: inhibition of growth at 20 ppm [1] | pest or weed control at 200 ppm [2] | pest or weed control at 200 ppm [6] | inhibition of growth at 20 ppm [3] | pest or weed control at 200 ppm [4] | inhibition of growth at 20 ppm [7] | inhibition of growth at 20 ppm [5]

CC1(C)CCC1NC(=O)c1nc(Nc2ccccc2)cc2c1OCO2 (centres unmarked) [Compound P-9, 6-anilino-N-(2,2-dimethylcyclobutyl)-[1,3]dioxolo[4,5-c]pyridine-4-carboxamide]
≥ 80%: inhibition of growth at 20 ppm [1] | pest or weed control at 200 ppm [2] | inhibition of growth at 20 ppm [3] | pest or weed control at 200 ppm [4] | inhibition of growth at 20 ppm [7] | inhibition of growth at 20 ppm [5]

CC(C)(C)CC(C)(C)NC(=O)c1nc(Nc2cc(F)cc(F)c2)cc2c1OCO2 [Compound P-17, 6-(3,5-difluoroanilino)-N-(1,1,3,3-tetramethylbutyl)-[1,3]dioxolo[4,5-c]pyridine-4-carboxamide]
≥ 80%: pest or weed control at 200 ppm [6] | inhibition of growth at 20 ppm [3] | inhibition of growth at 20 ppm [5]

CC(C)CCNC(=O)c1nc(Nc2cc(F)nc(F)c2)cc2c1OCO2 [Compound P-12, 6-[(2,6-difluoro-4-pyridyl)amino]-N-isopentyl-[1,3]dioxolo[4,5-c]pyridine-4-carboxamide]
≥ 80%: pest or weed control at 200 ppm [8] | inhibition of growth at 20 ppm [3] | inhibition of growth at 20 ppm [5]

CC1(NC(=O)c2nc(Nc3cc(F)cc(F)c3)cc3c2OCO3)CCCCC1 [Compound P-26, 6-(3,5-difluoroanilino)-N-(1-methylcyclohexyl)-[1,3]dioxolo[4,5-c]pyridine-4-carboxamide]
≥ 80%: inhibition of growth at 20 ppm [1] | pest or weed control at 200 ppm [2] | pest or weed control at 200 ppm [6] | pest or weed control at 200 ppm [8] | inhibition of growth at 20 ppm [3] | inhibition of growth at 20 ppm [5]

CC1(C)CCC1NC(=O)c1nc(Nc2cc(F)cc(F)c2)cc2c1OC(F)(F)O2 (centres unmarked) [Compound P-6, 6-(3,5-difluoroanilino)-N-(2,2-dimethylcyclobutyl)-2,2-difluoro-[1,3]dioxolo[4,5-c]pyridine-4-carboxamide]
≥ 80%: inhibition of growth at 20 ppm [1] | inhibition of growth at 20 ppm [5]

CC1(C)CCC1NC(=O)c1nc(N(C#N)c2cc(F)cc(F)c2)cc2c1OCO2 (centres unmarked) [Compound P-7, 6-(N-cyano-3,5-difluoro-anilino)-N-(2,2-dimethylcyclobutyl)-[1,3]dioxolo[4,5-c]pyridine-4-carboxamide]
≥ 80%: inhibition of growth at 20 ppm [1] | inhibition of growth at 20 ppm [3] | inhibition of growth at 20 ppm [5]

CC(C)(NC(=O)c1nc(Nc2cc(F)cc(F)c2)cc2c1OCO2)c1ccccc1 [Compound P-20, 6-(3,5-difluoroanilino)-N-(1-methyl-1-phenyl-ethyl)-[1,3]dioxolo[4,5-c]pyridine-4-carboxamide]
≥ 80%: inhibition of growth at 20 ppm [1] | inhibition of growth at 20 ppm [3] | inhibition of growth at 20 ppm [5]

CC(C)(C)CNC(=O)c1nc(Nc2cncc(F)c2)cc2c1OCO2 [Compound P-14, N-(2,2-dimethylpropyl)-6-[(5-fluoro-3-pyridyl)amino]-[1,3]dioxolo[4,5-c]pyridine-4-carboxamide]
≥ 80%: inhibition of growth at 20 ppm [1] | pest or weed control at 200 ppm [6] | inhibition of growth at 20 ppm [3] | inhibition of growth at 20 ppm [5]

CC(C)(C)CNC(=O)c1nc(Nc2cccc(F)c2)cc2c1OCO2 [Compound P-15, N-(2,2-dimethylpropyl)-6-(3-fluoroanilino)-[1,3]dioxolo[4,5-c]pyridine-4-carboxamide]
≥ 80%: inhibition of growth at 20 ppm [1] | pest or weed control at 200 ppm [2] | pest or weed control at 200 ppm [6] | inhibition of growth at 20 ppm [3] | inhibition of growth at 20 ppm [7] | inhibition of growth at 20 ppm [5]

CC(C)(C)CNC(=O)c1nc(Nc2cc(F)cc(F)c2)cc2c1OCO2 [Compound P-5, 6-(3,5-difluoroanilino)-N-(2,2-dimethylpropyl)-[1,3]dioxolo[4,5-c]pyridine-4-carboxamide]
≥ 80%: inhibition of growth at 20 ppm [1] | pest or weed control at 200 ppm [2] | pest or weed control at 200 ppm [6] | inhibition of growth at 20 ppm [3] | inhibition of growth at 20 ppm [5]

CC1(C)CCC1NC(=O)c1nc(Nc2cc(F)nc(F)c2)cc2c1OCO2 (centres unmarked) [Compound P-10, 6-[(2,6-difluoro-4-pyridyl)amino]-N-(2,2-dimethylcyclobutyl)-[1,3]dioxolo[4,5-c]pyridine-4-carboxamide]
≥ 80%: inhibition of growth at 20 ppm [1] | inhibition of growth at 20 ppm [3] | inhibition of growth at 20 ppm [5]

CC1Oc2cc(Nc3cc(F)cc(F)c3)nc(C(=O)NCC(C)(C)C)c2O1 (centres unmarked) [Compound P-3, 6-(3,5-difluoroanilino)-N-(2,2-dimethylpropyl)-2-methyl-[1,3]dioxolo[4,5-c]pyridine-4-carboxamide]
≥ 80%: inhibition of growth at 20 ppm [1]

CC1(NC(=O)c2nc(Nc3cc(F)cc(F)c3)cc3c2OCO3)COC1 [Compound P-24, 6-(3,5-difluoroanilino)-N-(3-methyloxetan-3-yl)-[1,3]dioxolo[4,5-c]pyridine-4-carboxamide]
≥ 80%: inhibition of growth at 20 ppm [1] | pest or weed control at 200 ppm [6] | inhibition of growth at 20 ppm [3] | pest or weed control at 200 ppm [4] | inhibition of growth at 20 ppm [5]

From patent US12497406B2, “Microbiocidal derivatives” (SYNGENTA CROP PROTECTION AG, priority 2019, dated 2025)
